pIC50: −log10 of the molar value.
Assays:
[1] = molecular target: T1, recombinant human sEH (hsEH) (Homo sapiens, UniProt P34913); assay: In vitro determination of sEH inhibitory activity (fluorescent PHOME assay)
T1 sequence (P34913 1-555): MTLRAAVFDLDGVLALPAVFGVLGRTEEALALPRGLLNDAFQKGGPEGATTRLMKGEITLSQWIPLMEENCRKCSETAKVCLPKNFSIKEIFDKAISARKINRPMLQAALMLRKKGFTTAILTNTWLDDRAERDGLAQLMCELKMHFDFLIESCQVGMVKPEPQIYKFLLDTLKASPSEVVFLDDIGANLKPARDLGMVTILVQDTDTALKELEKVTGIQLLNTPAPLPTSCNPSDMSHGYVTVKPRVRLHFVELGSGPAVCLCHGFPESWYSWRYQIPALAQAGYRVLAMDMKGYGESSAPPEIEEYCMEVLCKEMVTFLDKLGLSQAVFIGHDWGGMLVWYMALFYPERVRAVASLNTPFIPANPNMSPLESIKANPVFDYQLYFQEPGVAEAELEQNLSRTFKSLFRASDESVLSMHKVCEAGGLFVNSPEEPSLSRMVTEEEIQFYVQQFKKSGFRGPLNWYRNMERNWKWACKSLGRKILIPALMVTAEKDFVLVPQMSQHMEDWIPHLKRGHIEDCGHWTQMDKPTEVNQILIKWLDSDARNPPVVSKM
Procedure: Control compound (TPPU): N-[1-(1-Oxopropyl)-4-piperidinyl]-N′-[4-(trifluoromethoxy)phenyl]urea.
Five μL of DMSO were added to background and positive control wells, and then 5 μL of inhibitor solution were added in the inhibitor wells. Five μL of the solution of hsEH were added to the positive control and inhibitor wells and the mixture was stirred. A 1/21 dilution of the solution of PHOME with assay buffer was prepared according to the final volume required, and then 105 μL of each well were added. The plate was carefully shaken for 10 seconds and was incubated for 5 minutes at room temperature. […] The intensity of fluorescence was used to analyze and calculate the IC50 values. Results were obtained by regression analysis from at least three data points in a linear region of the curve. IC50 values are average of minimum three independent replicates.

[2] = molecular target: T2, human recombinant glutaminyl cyclase (hQC) (Homo sapiens, UniProt Q16769); assay: In vitro determination of human QC inhibitory activity (SensoLyte Green Glutaminyl Cyclase Activity Assay Kit); assay type: biochemical
T2 construct: purchased Eurogentec AS-72230
T2 sequence (Q16769 29-361): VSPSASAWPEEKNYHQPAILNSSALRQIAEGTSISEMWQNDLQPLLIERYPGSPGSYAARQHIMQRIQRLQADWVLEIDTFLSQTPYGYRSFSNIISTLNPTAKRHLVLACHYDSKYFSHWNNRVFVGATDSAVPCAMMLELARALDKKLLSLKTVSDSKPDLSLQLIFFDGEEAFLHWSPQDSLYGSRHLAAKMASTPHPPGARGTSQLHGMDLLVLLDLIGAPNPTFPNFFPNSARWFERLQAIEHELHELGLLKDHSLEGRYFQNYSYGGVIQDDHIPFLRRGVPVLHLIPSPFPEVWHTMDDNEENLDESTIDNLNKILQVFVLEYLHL
Procedure: Basic statistical analysis was performed.

[3] = Parallel artificial membrane permeation assay for blood-brain barrier (PAMPA-BBB); assay type: in vitro ADME, porcine; conditions: for Papp: pig, PBS:EtOH (70:30), read-out: Blood-brain barrier permeability Pe; for CNS prediction: predictive penetration in the CNS from Pe
Procedure: A parallel artificial membrane permeation assay for blood-brain barrier (PAMPA-BBB) was used to evaluate the brain penetration of compounds of formula I, following the method described by L. Di et al., “High throughput artificial membrane permeability assay for blood-brain barrier”, European Journal of Medicinal Chemistry 2003, vol. 38. pp. 223-232. The in vitro permeability (Pe) of the test compounds through a lipid extract of porcine brain membrane was determined. Assayed compounds were tested using a mixture of PBS:EtOH (70:30). Assay validation was made by comparing the experimental and reported permeability values of a set of fourteen commercial drugs and a lineal correlation between experimental and reported permeability values of the fourteen commercial drugs was obtained (y=1.678 x−1.447; R^2=0.9313). From this equation and taking into account the limits established by Di et al. for BBB permeation, the ranges of permeability were established, as follows. Compounds of high BBB permeation (CNS+): Pe (10^−6 cm s^−1)>5.26; compounds of low BBB permeation (CNS−): Pe (10^−6 cm s^−1)<1.91; and compounds of uncertain BBB permeation (CNS+/−): 5.26>Pe (10^−6 cm s^−1)>1.91. The permeability results are averages of three different experiments in triplicate and a predictive penetration in the CNS is also given (Table 5).

Cc1cncn1CCCNC(=O)NCCC1C2CC3CC(C2)CC1C3 (stereo not shown) [Ip, 1-[2-(adamantan-2-yl)ethyl]-3-[3-(5-methyl-1H-imidazol-1-yl)propyl]urea]
pIC50 [1]: 7.02
pIC50 [2]: 5.84
Papp [3]: 13 ×10⁻⁶ cm/s
CNS prediction [3]: CNS+ (Compounds of high BBB permeation (CNS+): Pe (10^−6 cm s^−1)>5.26)

Cc1cncn1CCCNC(=O)NC12CC3CC(CC1C3)C2 [It, 1-(noradamantan-3-yl)-3-[3-(5-methyl-1H-imidazol-1-yl)propyl]urea]
pIC50 [1]: 6.73
pIC50 [2]: 6.34
Papp [3]: 5.8 ×10⁻⁶ cm/s
CNS prediction [3]: CNS+ (Compounds of high BBB permeation (CNS+): Pe (10^−6 cm s^−1)>5.26)

Cc1cncn1CCCNC(=O)NC12CC3(C)C4(C)CC1CC4(C)C3(C)C2 [Iv, 1-[3-(5-methyl-1H-imidazol-1-yl)propyl]-3-(3,4,8,9-tetramethyltetracyclo[4.4.0.0^3,9.0^4,8]decan-1-yl)urea]
pIC50 [1]: 6.99
pIC50 [2]: 6.27
Papp [3]: 7.5 ×10⁻⁶ cm/s
CNS prediction [3]: CNS+ (Compounds of high BBB permeation (CNS+): Pe (10^−6 cm s^−1)>5.26)

Cc1cncn1CCCNC(=O)N(C)C1C2CC3CC(C2)CC1C3 (stereo not shown) [Iy, 1-(adamantan-2-yl)-1-methyl-3-[3-(5-methyl-1H-imidazol-1-yl)propyl]urea]
pIC50 [1]: 7.64
pIC50 [2]: 6.69
Papp [3]: 9.8 ×10⁻⁶ cm/s
CNS prediction [3]: CNS+ (Compounds of high BBB permeation (CNS+): Pe (10^−6 cm s^−1)>5.26)
